Experimental data reported in ChEMBL document CHEMBL1150384, “Design, synthesis, and evaluation of potential inhibitors of nitric oxide synthase” (Bioorg Med Chem, 2008).
pKi: −log10 of the molar value.

The molecules below were run against Nitric oxide synthase 1 (Homo sapiens, UniProt P29475).
Nitric oxide synthase 1, sequence (P29475 whole entry): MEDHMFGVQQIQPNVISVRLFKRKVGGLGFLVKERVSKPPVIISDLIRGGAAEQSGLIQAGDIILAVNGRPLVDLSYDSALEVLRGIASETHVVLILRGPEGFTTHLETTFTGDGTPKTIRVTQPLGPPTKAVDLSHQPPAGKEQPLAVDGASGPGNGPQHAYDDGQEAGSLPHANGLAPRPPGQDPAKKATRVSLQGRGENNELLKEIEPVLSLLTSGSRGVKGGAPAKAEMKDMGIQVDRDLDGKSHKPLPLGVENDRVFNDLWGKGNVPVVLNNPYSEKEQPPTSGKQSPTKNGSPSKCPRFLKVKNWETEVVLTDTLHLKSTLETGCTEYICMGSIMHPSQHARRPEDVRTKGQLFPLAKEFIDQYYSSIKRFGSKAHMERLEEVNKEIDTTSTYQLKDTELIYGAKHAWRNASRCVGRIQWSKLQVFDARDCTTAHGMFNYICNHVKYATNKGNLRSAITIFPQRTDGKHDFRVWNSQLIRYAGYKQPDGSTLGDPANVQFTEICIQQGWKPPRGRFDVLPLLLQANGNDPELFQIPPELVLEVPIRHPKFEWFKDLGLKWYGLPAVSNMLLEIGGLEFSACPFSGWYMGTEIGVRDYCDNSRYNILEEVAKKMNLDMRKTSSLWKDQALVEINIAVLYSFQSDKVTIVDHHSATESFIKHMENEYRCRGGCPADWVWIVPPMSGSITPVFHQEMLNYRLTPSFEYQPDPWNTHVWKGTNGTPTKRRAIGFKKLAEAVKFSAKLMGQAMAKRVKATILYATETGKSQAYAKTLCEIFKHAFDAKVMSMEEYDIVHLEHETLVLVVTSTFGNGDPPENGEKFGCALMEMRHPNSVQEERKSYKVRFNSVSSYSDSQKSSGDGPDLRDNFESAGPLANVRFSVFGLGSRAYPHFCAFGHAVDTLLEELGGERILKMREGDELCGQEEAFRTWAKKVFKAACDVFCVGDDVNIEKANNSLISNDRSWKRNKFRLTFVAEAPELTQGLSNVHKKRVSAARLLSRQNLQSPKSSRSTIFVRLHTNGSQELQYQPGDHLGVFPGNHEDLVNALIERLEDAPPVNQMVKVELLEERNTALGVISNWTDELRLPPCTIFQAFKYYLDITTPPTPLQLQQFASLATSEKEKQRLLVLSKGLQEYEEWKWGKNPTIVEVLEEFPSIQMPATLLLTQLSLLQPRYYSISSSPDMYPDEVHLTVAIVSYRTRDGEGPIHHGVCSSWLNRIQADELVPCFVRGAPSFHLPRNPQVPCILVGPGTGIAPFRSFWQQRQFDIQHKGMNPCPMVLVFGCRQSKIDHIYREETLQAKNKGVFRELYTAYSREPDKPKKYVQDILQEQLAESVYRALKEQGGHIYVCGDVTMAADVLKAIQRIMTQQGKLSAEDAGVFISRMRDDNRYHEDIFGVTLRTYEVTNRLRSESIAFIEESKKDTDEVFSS
Description: Inhibition of nNOS assessed as conversion of L-[3H]arginine to L-[3H]citrulline

Row | pKi | SMILES
1 | 7.00 | C=CCC(=N)NCCC[C@H](N)C(=O)O
2 | 6.60 | N=C(N)SCCc1cccc(CCSC(=N)N)c1
3 | 3.98 | O=C(Cn1ccnc1)c1ccc([N+](=O)[O-])cc1
4 | 5.28 | CCCC(=N)NCCC[C@H](N)C(=O)O
5 | 5.00 | N=C(NCC1CC1)n1cccn1
6 | 7.80 | N=C(N)SCCc1ccc(CCSC(=N)N)cc1
7 | 5.22 | NCCCC/N=C(\N)n1cccn1
8 | 3.82 | N[C@@H](CCCCCCc1cnc[nH]1)C(=O)O
9 | 4.13 | Cc1nccn1CC(=O)c1ccc([N+](=O)[O-])cc1
10 | 5.68 | CC(=N)Nc1cccc(CNO)c1
11 | 5.70 | N[C@@H](CCCc1cnc[nH]1)C(=O)O
12 | 4.15 | N[C@@H](CCCCCc1cncn1-c1ccccc1)C(=O)O
13 | 3.46 | Cc1cc(C)n(C(=N)N)n1
14 | 6.21 | CC(C)(C)SC(=N)N
15 | 4.92 | Cc1cnn(C(=N)N)c1
16 | 4.49 | Brc1ccc(OCCCCn2ccnc2)cc1
17 | 4.85 | CC(=N)Nc1cccc(N)c1
18 | 5.74 | N=C(N)SCCN
19 | 5.52 | CCC/N=C(\N)n1cccn1
20 | 3.76 | c1ccc(-c2ccc(CCn3ccnc3)cc2)cc1
21 | 5.10 | Cc1ccn(C(=N)N)n1
22 | 6.24 | CC(=N)Nc1cccc(C(=N)N)c1

Row | pKi | SMILES
23 | 6.43 | CC(=N)Nc1cccc(CN=C(C)N)c1
24 | 4.22 | CCCCC/N=C(\N)n1cccn1
25 | 5.70 | N[C@@H](CCCCCc1cnc[nH]1)C(=O)O
26 | 3.43 | O=C(Cn1ccnc1)c1ccccc1[N+](=O)[O-]
27 | 4.22 | Brc1cccc(OCCCCn2ccnc2)c1
28 | 3.90 | Brc1ccc(OCCn2ccnc2)cc1
29 | 4.35 | FC(F)(F)c1ccc(OCCn2ccnc2)cc1
30 | 7.38 | CC(=N)Nc1cccc(CNCc2cccc(C(C)=N)c2)c1
31 | 6.44 | CC(=N)Nc1cccc(CSC(=N)N)c1
32 | 5.70 | N=C(Nc1cccc(CN)c1)n1cccn1
33 | 5.82 | CC(=N)Nc1cccc(NC(C)=N)c1
34 | 3.90 | OC(Cn1ccnc1)c1ccc(-c2ccccc2)cc1 (centres undefined)
35 | 4.85 | CCCC/N=C(\N)n1cccn1
36 | 7.43 | CC(C)SC(=N)N
37 | 6.20 | CCCSC(=N)N
38 | 6.10 | N=C(N)SCCc1ccccc1
39 | 4.35 | CC(C)C/N=C(\N)n1cccn1
40 | 4.12 | FC(F)(F)c1ccc(OCCCn2ccnc2)cc1
41 | 4.24 | Brc1ccc(OCCCCCCn2ccnc2)cc1
42 | 3.90 | Brc1ccc(OCCCn2ccnc2)cc1
43 | 4.19 | N[C@@H](CCCCc1cnc[nH]1)C(=O)O
44 | 3.77 | N[C@@H](CCc1cnc[nH]1)C(=O)O

Row | pKi | SMILES
45 | 4.10 | N[C@@H](CCCc1cncn1-c1ccccc1)C(=O)O
46 | 4.00 | N[C@@H](CCCCc1cncn1-c1ccccc1)C(=O)O
47 | 7.25 | CNCc1cccc(NC(C)=N)c1
48 | 4.54 | CC(=N)Nc1cccc(S(N)(=O)=O)c1
49 | 7.00 | N=C(N)SCc1ccc(CSC(=N)N)cc1
50 | 5.32 | N=C(N)SCCCc1cccc(CCCSC(=N)N)c1
51 | 5.96 | Cc1cnc(N)s1
52 | 5.55 | CC(=N)Nc1cccc(CN2CCOCC2)c1
53 | 4.30 | N=C(NC1CC1)n1cccn1
54 | 6.77 | CC(=N)Nc1cccc(CN(C)C)c1
55 | 4.03 | FC(F)(F)c1ccc(OCCCCn2ccnc2)cc1
56 | 5.96 | CC(=N)Nc1cccc(NN)c1
57 | 3.74 | Brc1ccccc1OCCCCn1ccnc1
58 | 4.85 | N=C(N)SCCCc1ccccc1
59 | 5.00 | Cc1csc(N)n1
60 | 5.40 | N=C(NN)Nc1ccccc1
61 | 5.52 | CCC(=N)NCCC[C@H](N)C(=O)O
62 | 5.70 | CC(C)=CCSC(=N)N
63 | 4.46 | FC(F)(F)c1ccc(OCCCCCCn2ccnc2)cc1
64 | 4.92 | Nc1nccs1 [AMINOTHIAZOLE]
65 | 4.85 | N=C(N)SCc1ccccc1 [BENZYL CARBAMIMIDOTHIOATE]
66 | 7.54 | CCSC(=N)N [ETHYLISOTHIOUREA]

Row | SMILES | pKi
67 | NC(=O)[C@@H]1C[C@@H](NC(=O)[C@@H](N)CCC/N=C(\N)N[N+](=O)[O-])CN1 | 7.00
68 | c1ccc(-n2ccnc2)cc1 | 3.37
69 | NC1=NCCS1 | 6.39
70 | CNC(=N)NN | 4.85
71 | Cc1nc(N)sc1C | 6.42
72 | CC(=N)Nc1cccc(CCN)c1 | 6.00
73 | Nc1nc(CCc2ccccc2)cs1 | 6.05
74 | CCNC(=N)NN | 6.00
75 | N=C(NCCC[C@H](N)C(=O)N[C@@H]1CN[C@@H](C(N)=O)C1)N[N+](=O)[O-] | 5.96
76 | N=C(NN)NO | 6.17
77 | c1c[nH]cn1 [IMIDAZOLE] | 3.76
78 | N=C(N)NN [PIMAGEDINE] | 5.48
79 | N=C(N)n1cccn1 [PRAXADINE] | 6.40
